These results are taken from patent publication US9365598B2, “Phosphine derivatives of fluorescent compounds” (Pierce Biotechnology, Inc., priority 2011, dated 2016).

The nature of data set [1]: Thermal stress stability of the compounds, purity by HPLC before and after storage. To be noted: unit size 1 mg; for Purity Before thermal stress: packed under argon, HPLC before storage; for Purity After thermal stress: under argon, stored at 50° C. for 14 days, HPLC. Type of data set: physicochemical. The protocol:
The inventive compounds were evaluated for stability compared to commercial dyes. All compounds were packed under argon as 1 mg portions in plastic vials. The vials were sealed under argon with a drying pad in an aluminium coated pouch, and then stored at 50° C. for 14 days. The results of the stability study for selected compounds are shown below where the determination of purity was by HPLC before and after storage.

The next data set has as its system mouse IgG immunoglobulin. Put plainly: Functional plate assay of compound-PEG4-GAM conjugates (RFU). The format is binding. To be noted: conjugates at 4 μg/ml on mouse IgG coated plates; FIGS. 13-14. The protocol: Performance of compound-GAM conjugates and compound-GAR conjugates was evaluated in a functional assay. Wells of a 96 white opaque plate were coated with target proteins mouse IgG immunoglobulin or rabbit IgG immunoglobulin. One hundred μl mouse or rabbit IgG at a concentration of 10 μg/ml was applied to the corresponding wells in columns 1 and 2. The target proteins were serially diluted 1:1 from the wells in columns 2 to 11 using 100 μl PBS. One hundred μl of samples from the wells in column 11 were discarded. One hundred μl PBS was added to the wells in column 12. The plates were incubated overnight at 4° C. and then blocked 2×200 μl with Thermo Scientific SuperBlock® Blocking Buffer. […] The plates were washed with 2×200 μl with PBS-Tween and 1×200 μl with PBS and filled with PBS buffer (100 μl/well) prior to scanning on Tecan Safire using 562 nmexcitation/576 nmemission to detect fluorescence intensity and DyLight 649 and DyLight 650 plated were measured using 654 nmexcitation/673 nmemission.
As shown in FIGS. 13-14, the fluorescence intensity, also termed the RFU, was compared for compound-PEG4-GAM conjugates where the compound was DyLight 549-phosphine (blue; FIG. 13), 550 Compound 1-phosphine (red; FIG. 13), DyLight 649-phosphine (red; FIG. 14) and 650 Compound 1-phosphine (blue; FIG. 14) at various concentrations. […]

The next data set deals with A549 cell lysate. The data set is described as follows: A549 cell lysate labeling with azido-sugars, SDS-PAGE. Type of data set: cell-based, human. On the procedure: The inventive and commercial compounds were examined in A549 cell lysate labeling experiments using azido-sugars. Cell extracts were prepared from A549 incubated with azido-sugar N-azidoacetylgalactosamine […], N-azidoacetylglucosamine (GlcNAz) or N-azidoacetylmannosamine […]. The cell extracts were incubated with either 550 Compound 1-phosphine, 650 Compound 1-phosphine, CLICK-iT® Alexa555-Alkyne, or CLICK-iT® Alexa Fluor 647 DIBO Alkyne and analyzed by SDS-PAGE. The resulting lysates were separated by electrophoresis. 10 μg protein was loaded onto a PAGE gel (4-12% Bis-Tris gel).
The resulting lysates were separated by electrophoresis. […]
FIGS. 63-64 graphically represent band intensity of FIGS. 61-62. […] Relative fluorescence intensity for the gel image of FIG. 61 comparing Alexa555 (copper) and 550 Compound 1-phosphine (FIG. 63) and for the gel image of FIG. 62 comparing Alexa647 (copper-less) and 650 Compound 1-phosphine (FIG. 64).

For a further data set, the system named is A549 cells. The data set is described as follows: Azido-sugar cell labeling, A549 cells. To be noted: N-azidoacetyl galactosamine, 100 μM dye-phosphine 3 h 37° C. Type of data set: cell-based, human. An excerpt:
(§1) The inventive and commercial compounds were examined in cell labeling experiments using azido-sugars and adenocarcinomic human alveolar basal epithelial (A549) cells, human osteosarcoma (U2OS) cells, and immortalized proximal tubule epithelial (HK2) cells. As is known in the art, introduction of labeled sugar moieties results in incorporation of the labeled sugar moieties in various cellular molecules and locations.
Metabolically incorporated azido-labeled sugars, N-azidoacetyl galactosamine, N-azidoacetyl glucosamine, and N-azidoacetyl mannosamine was detected in vivo. Cells were incubated with 40 μM azido-sugar in cell culture media for 72 hours and the live cells were incubated with 100 μM of dye-labeled phosphine. The cells were then washed, fixed with 4% paraformaldehyde and counterstained with Hoechst 33342 which labels nuclei. For fixed cells, the cells were incubated with the azido-sugar, fixed with 4% paraformaldehyde, permeabilized with 0.1% Triton X-100, and incubated with 100 μM of dye-labeled phosphine. […]
Fluorescence intensity was measured in each spot identified using a specific Bio-Application with the ArrayScanVTI image analysis software. […]

The next data set deals with U2OS cells. The data set is described as follows: Azido-sugar cell labeling, U2OS cells. Type of data set: cell-based, human. To be noted: 100 μM dye-phosphine.
Text: as §1
Metabolically incorporated azido-labeled sugars, N-azidoacetyl galactosamine, N-azidoacetyl glucosamine, and N-azidoacetyl mannosamine was detected in vivo. Cells were incubated with 40 μM azido-sugar in cell culture media for 72 hours and the live cells were incubated with 100 μM of dye-labeled phosphine. The cells were then washed, fixed with 4% paraformaldehyde and counterstained with Hoechst 33342 which labels nuclei. For fixed cells, the cells were incubated with the azido-sugar, fixed with 4% paraformaldehyde, permeabilized with 0.1% Triton X-100, and incubated with 100 μM of dye-labeled phosphine. In live cell labeling using the phosphine labeling reaction used 100 μM of the dye-labeled phosphine for three hours at 37° C., and the CLICK-iT® labeling reaction, using DIBO-Alexa dye, used 30 μM of the DIBO Alexa dye for one hour at room temperature (RT). […]

The next data set concerns HK2 cells. The data set is described as follows: Azido-sugar cell labeling, HK2 cells. To be noted: 100 μM dye-phosphine. The format is cell-based.
Text: as §1
Metabolically incorporated azido-labeled sugars, N-azidoacetyl galactosamine, N-azidoacetyl glucosamine, and N-azidoacetyl mannosamine was detected in vivo. Cells were incubated with 40 μM azido-sugar in cell culture media for 72 hours and the live cells were incubated with 100 μM of dye-labeled phosphine. The cells were then washed, fixed with 4% paraformaldehyde and counterstained with Hoechst 33342 which labels nuclei. For fixed cells, the cells were incubated with the azido-sugar, fixed with 4% paraformaldehyde, permeabilized with 0.1% Triton X-100, and incubated with 100 μM of dye-labeled phosphine. In live cell labeling using the phosphine labeling reaction used 100 μM of the dye-labeled phosphine for three hours at 37° C., and the CLICK-iT® labeling reaction, using DIBO-Alexa dye, used 30 μM of the DIBO Alexa dye for one hour at room temperature (RT). In fixed cell labeling, the phosphine labeling reaction used 100 μM of the dye-labeled phosphine for three hours at 37° C., and the CLICK-IT® labeling reaction, using DIBO-Alexa dye, used 50 μM of the DIBO Alexa dye for one hour at RT in the presence of 5 μM copper for one hour at RT in the absence of copper.
HK2 cells, either live (column A) or fixed (column B), were labeled with N-azidoacetyl galactosamine followed by labeling with 550 Compound 1-phosphine (row 1), 650 Compound 1-phosphine (row 2), or Copperless CLICK-iT® using DIBO-Alexa647 (row 3), as shown in FIG. 52. A graphical representation of the spot average intensity for the images of FIG. 52 is shown for labeling live (FIG. 53) and fixed (FIG. 54) cells. […]

In data set [2] the test system is secretory vesicles in HK2, A549, and U2OS cells. Put plainly: Secretory vesicle labeling with Az-ManNAc. Type of data set: cell-based. To be noted: N-azidoacetyl mannosamine; co-localized with PGP9.5. The source says:
The inventive and commercial compounds were used to label secretory vesicles in various cell types using azido-sugars. […] Co-localization of Man-650 Compound 1-phosphine, and this labeling was co-localized with PGP9.5, a secreted protein, as shown in FIGS. 65B and 66B (red arrows).

As for “2-((1E,3E)-3-(1-(6-(2-(3-(diphenylphosphino)-4-(methoxycarbonyl)benzamido)ethylamino)-6-oxohexyl)-3-methyl-5-sulfonato-3-(3-sulfonatopropyl)indolin-2-ylidene)prop-1-enyl)-1-(2-methoxyethyl)-3-methyl-3-(3-sulfonatopropyl)-3H-indolium-5-sulfonate [550 Compound 1-phosphine]”, in data set [1], the “Purity Before thermal stress” value amounted to 96% and the “Purity After thermal stress” value was found to be 96%. Besides, the “fluorescence intensity (RFU) of compound-PEG4-GAM conjugates compared with DyLight 549 / DyLight 649 conjugate” value with mouse IgG immunoglobulin was “similar”. For the same substance, the “band intensity of labeled lysate versus CLICK-iT Alexa 555-alkyne” value with A549 cell lysate (A549 lysates, three azido-sugars, 10 μg protein per lane, FIG. 63) is “better than CLICK-iT® Alexa 555-alkyne”.
On to “2-((1E,3E,5E)-5-(1-(6-(2-(3-(diphenylphosphino)-4-(methoxycarbonyl)benzamido)ethylamino)-6-oxohexyl)-3-methyl-5-sulfonato-3-(3-sulfonatopropyl)indolin-2-ylidene)penta-1,3-dienyl)-1-(2-methoxyethyl)-3-methyl-3-(3-sulfonatopropyl)-3H-indolium-5-sulfonate [650 Compound 1-phosphine]”, for which, in data set [1], the “Purity Before thermal stress” value is 97%. Besides, in data set [1], the “Purity After thermal stress” value worked out at 96%. Besides, the “fluorescence intensity (RFU) of compound-PEG4-GAM conjugates compared with DyLight 549 / DyLight 649 conjugate” value in the data set with mouse IgG immunoglobulin is on record as “similar”. Moreover, the “live cell labeling (spot average intensity) versus Alexa647-DIBO CLICK-iT” value in the data set with A549 cells was “better than Alexa647-DIBO CLICK-iT® labeling”; with U2OS cells (N-azidoacetyl glucosamine), “better than Alexa647-DIBO CLICK-iT® labeling”; with U2OS cells (N-azidoacetyl mannosamine), “better than Alexa647-DIBO CLICK-iT® labeling”; in the data set on HK2 cells (N-azidoacetyl galactosamine), “better than Alexa647-DIBO CLICK-iT® labeling”; with HK2 cells (N-azidoacetyl glucosamine), “better than Alexa647-DI BO CLICK-iT® labeling”; in the data set on HK2 cells (N-azidoacetyl mannosamine) it was “better than Alexa647-DIBO CLICK-iT® labeling”. The “labeling pattern of lysate on gel” value in the data set on A549 cell lysate (A549 lysates with Az-GalNAc, Az-GlcNAc or Az-ManNAc, FIG. 62) was “different labeling pattern for each of the three incorporated azido-sugars”. Further, the secretory vesicle labeling result in data set [2] is recorded as “resulted in labeling of secretory vesicles”.
